Assay [1] deals with C. parvum. As to the kind of experiment: In vitro inhibition of C. parvum development in HCT-8 cells. In kind it is cell-based. As to conditions: Cryptosporidium parvum.
Assay [2] has as its system cryptosporidiosis. Conditions: cited from earlier work.
[3] abbreviates: HCT-8 cells, Table 4, read-out: EC50 for inhibition of C. parvum development in HCT-8 cells.
[4] abbreviates: average EC50, C. parvum in HCT-8 cells, read-out: Cp HTC-8 Avg EC50.

SMILES strings stand for the structures. Like-named read-outs stand apart in the source and are kept apart here.

Turning to `O=C(Cc1ccccc1)N1CCN(c2ccc3nncn3n2)CC1` [Example 2819, 2-phenyl-1-(4-{[1,2,4]triazolo[4,3-b]pyridazin-6-yl}piperazin-1-yl)ethan-1-one], the EC50 – broadly, the concentration needed to bring the measured effect to its halfway point – in assay [1] (setting [3]) is 22000 nM.
As to `C#Cc1ccc(CC(=O)N2CCN(c3ccc4nncn4n3)CC2)cc1` [Example 10046, 2-(4-ethynylphenyl)-1-(4-{[1,2,4]triazolo[4,3-b]pyridazin-6-yl}piperazin-1-yl)ethan-1-one], the EC50 in assay [1] (setting [3]) and in assay [1] (setting [4]) was 883 nM throughout.
As for `O=C(Cc1c(F)c(F)c(F)c(F)c1F)N1CCN(c2ccc3nncn3n2)CC1` [Example 10090, 2-(2,3,4,5,6-pentafluorophenyl)-1-(4-{[1,2,4]triazolo[4,3-b]pyridazin-6-yl}piperazin-1-yl)ethan-1-one], the EC50 in assay [1] (setting [3]) is above 50000 nM.
With `O=C(Cc1ccc(Br)c(Cl)c1)N1CCN(c2ccc3nncn3n2)CC1` [Example 10238, 2-(4-bromo-3-chlorophenyl)-1-(4-{[1,2,4]triazolo[4,3-b]pyridazin-6-yl}piperazin-1-yl)ethan-1-one], the EC50 in assay [1] (setting [3]) and in assay [1] (setting [4]) was 251 nM in each case.
In the case of `O=C(Cc1ccc(Cl)c(Br)c1)N1CCN(c2ccc3nncn3n2)CC1` [Example 10239, 2-(3-bromo-4-chlorophenyl)-1-(4-{[1,2,4]triazolo[4,3-b]pyridazin-6-yl}piperazin-1-yl)ethan-1-one], the EC50 in assay [1] (setting [3]) and in assay [1] (setting [4]) was 121 nM throughout.
For `O=C(Cc1ccc(Br)c(F)c1)N1CCN(c2ccc3nncn3n2)CC1` [Example 10240, 2-(4-bromo-3-fluorophenyl)-1-(4-{[1,2,4]triazolo[4,3-b]pyridazin-6-yl}piperazin-1-yl)ethan-1-one], the EC50 in assay [1] (setting [3]) and in assay [1] (setting [4]) was 773 nM in each case.
On to `O=C(Cc1ccc(F)c(Br)c1)N1CCN(c2ccc3nncn3n2)CC1` [Example 10241, 2-(3-bromo-4-fluorophenyl)-1-(4-{[1,2,4]triazolo[4,3-b]pyridazin-6-yl}piperazin-1-yl)ethan-1-one], for which the EC50 in assay [1] (setting [3]) and in assay [1] (setting [4]) was 232 nM each time.
Consider `CC(C)(C)OC(=O)NCCCc1ccc(CC(=O)N2CCN(c3ccc4nncn4n3)CC2)cc1` [Example 10242, Tert-butyl N-(3-{4-[2-oxo-2-(4-{[1,2,4]triazolo[4,3-b]pyridazin-6-yl}piperazin-1-yl)ethyl]phenyl}propyl)carbamate], for which, in assay [1] (setting [3]), the EC50 is above 50000 nM.
As to `O=C(Cc1ccc(Cl)c(Cl)c1)N1CCN(c2ccc3nnc(Cc4ccccc4)n3n2)CC1` [Example 10249, 1-(4-{3-benzyl-[1,2,4]triazolo[4,3-b]pyridazin-6-yl}piperazin-1-yl)-2-(3,4-dichlorophenyl)ethan-1-one], in assay [1] (setting [3]), the EC50 turned out to be 16000 nM.
With `O=C(Cc1ccc(Cl)c(Cl)c1)N1CCN(c2ccc3nnc(-c4ccnc(C(F)(F)F)c4)n3n2)CC1` [Example 10262, 2-(3,4-dichlorophenyl)-1-(4-{3-[2-(trifluoromethyl)pyridin-4-yl]-[1,2,4]triazolo[4,3-b]pyridazin-6-yl}piperazin-1-yl)ethan-1-one], in assay [1] (setting [3]), the EC50 is 6110 nM.
Still for that read-out and setting: the result for `O=C(Cc1ccc2c(c1)OCO2)N1CCN(c2ccc3nncn3n2)CC1` [Example 10422, 2-(2H-1,3-benzodioxol-5-yl)-1-(4-{[1,2,4]triazolo[4,3-b]pyridazin-6-yl}piperazin-1-yl)ethan-1-one] reads 10400 nM; that for `O=C(Cc1ccc(S(F)(F)(F)(F)F)cc1)N1CCN(c2ccc3nncn3n2)CC1` [Example 10441, 2-[4-(pentafluoro-λ^6-sulfanyl)phenyl]-1-(4-{[1,2,4]triazolo[4,3-b]pyridazin-6-yl}piperazin-1-yl)ethan-1-one], 11500 nM.
Regarding `O=C(Cc1cccc(S(F)(F)(F)(F)F)c1)N1CCN(c2ccc3nncn3n2)CC1` [Example 10442, 2-[3-(pentafluoro-λ^6-sulfanyl)phenyl]-1-(4-{[1,2,4]triazolo[4,3-b]pyridazin-6-yl}piperazin-1-yl)ethan-1-one], the EC50 in assay [1] (setting [3]) worked out at 1120 nM.
With `O=C(Cc1cc(Cl)cc(C(F)(F)F)c1)N1CCN(c2ccc3nncn3n2)CC1` [Example 10479, 2-[3-chloro-5-(trifluoromethyl)phenyl] -1-(4-{[1,2,4]triazolo[4,3-b]pyridazin-6-yl}piperazin-1-yl)ethan-1-one], the EC50 in assay [1] (setting [3]) and in assay [1] (setting [4]) was 407 nM each time.
Take `O=C(Cc1ccc(C(F)(F)F)c(F)c1)N1CCN(c2ccc3nncn3n2)CC1` [Example 10480, 2-[3-fluoro-4-(trifluoromethyl)phenyl] -1-(4-{[1,2,4]triazolo[4,3-b]pyridazin-6-yl}piperazin-1-yl)ethan-1-one]: in assay [1] (setting [3]), the EC50 was determined as 2000 nM.
As for `O=C(Cc1ccc(Cl)c(C(F)(F)F)c1)N1CCN(c2ccc3nncn3n2)CC1` [Example 10481, 2-[4-chloro-3-(trifluoromethyl)phenyl] -1-(4-{[1,2,4]triazolo[4,3-b]pyridazin-6-yl}piperazin-1-yl)ethan-1-one], the EC50 in assay [1] (setting [3]) and in assay [1] (setting [4]) was 272 nM each time.
`O=C(Cc1ccc(F)c(C(F)(F)F)c1)N1CCN(c2ccc3nncn3n2)CC1` [Example 10482, 2-[4-fluoro-3-(trifluoromethyl)phenyl] -1-(4-{[1,2,4]triazolo[4,3-b]pyridazin-6-yl}piperazin-1-yl)ethan-1-one]: the EC50 turned out to be 68.7 nM in assay [1] (setting [3]) and 68.6 nM in assay [1] (setting [4]).
`O=C(Cc1cc(F)cc(Cl)c1)N1CCN(c2ccc3nncn3n2)CC1` [Example 10483, 2-(3-chloro-5-fluorophenyl)-1-(4-{[1,2,4]triazolo[4,3-b]pyridazin-6-yl}piperazin-1-yl)ethan-1-one]: the EC50 in assay [1] (setting [3]) and in assay [1] (setting [4]) was 880 nM in each case.
Take `O=C(Cc1ccc(C(F)(F)F)cc1)N1CCN(c2ccc3nncn3n2)CC1` [Example 10484, 1-(4-{[1,2,4]triazolo[4,3-b]pyridazin-6-yl}piperazin-1-yl)-2-[4-(trifluoromethyl)phenyl] ethan-1-one]: the EC50 in assay [1] (setting [3]) was 5450 nM.
The same measure, in the same setting: the figure for `O=C(Cc1cc(F)cc(F)c1)N1CCN(c2ccc3nncn3n2)CC1` [Example 10485, 2-(3,5-difluorophenyl)-1-(4-{[1,2,4]triazolo[4,3-b]pyridazin-6-yl}piperazin-1-yl)ethan-1-one] is 5660 nM.
`CC(=O)Oc1ccccc1C(=O)Nc1ncc([N+](=O)[O-])s1` [Nitazoxanide]: the values for the efficacy in cryptosporidiosis entry in assay [2] (AIDS patients) and in assay [2] (children) were “no more effective than placebo” and “partial efficacy”, respectively.
For the compound `O=C(Cc1cc(C(F)(F)F)cc(C(F)(F)F)c1)N1CCN(c2ccc3nncn3n2)CC1` [SLU-0010495, 2-[3,5-bis(trifluoromethyl)phenyl]-1-(4-{[1,2,4]triazolo[4,3-b]pyridazin-6-yl}piperazin-1-yl)ethan-1-one], the EC50 in assay [1] (setting [4]) was found to be 319 nM.

Source of the values: US20230212172A1, “ARYLACETAMIDE ANALOGS OF PIPERAZINE-[1,2,4]TRIAZOLO[4,3-B]PYRIDAZINES” (University of Vermont and State Agricultural College, priority 2020, published 2023).
